In brackets after ≈: the same amount, converted by molar mass.
What was measured:
physchem = details: water
[1] = in vivo
Text: In this example, the FTIR-ATR technique was used to assess the presence and amount of polyolprepolymer-2 ("PP-2") in the stratum corneum of two human subjects, in vivo.
The test solution contained 10 wt % PP-2 dissolved in ethanol/water (60:40 v/v). the control solution consisted only of ethanol/water (60:40 v/v). Webtril™ pads (12cm×2.5cm) were saturated either with test or control solution and were applied to the left and right forearms of two subjects, respectively. The pads were secured in place with Tegaderm 1626™ occlusive transparent dressing during the entire 3 hour exposure period. The skin surface of the dosing sites was lightly wiped with two cotton-tipped swabs following the exposure period. A total of 8 tape strippings were performed: 6 were done immediately and 2 were done 2 hours later. […]
FTIR spectra of the stratum comeum was measured from the dosing site and compared with the FTIR spectra of PP-2. The ratio of PP-2 absorption at 1095 cm^-1 to stratum corneum absorption at 675 cm^-1 (R 1095/675) was determined to account for potential differences in degree of contact between the sample (forearm) and the ATR crystal. […]
The absorbance ratio, R 1095/675, of PP-2 was determined. The quantity εb was computed, based upon the known surface concentration of PP-2 and using Beer's Law (A=εbC). […]

Compound | solubility (physchem) [mg/mL] | localization in skin [1]
O=c1[nH]cc(F)c(=O)[nH]1 [5-FU, 5-fluorouracil] | 10.2 (≈ 78.4 mM) | 
poly[oxy(methyl-1,2-ethanediyl)], α-hydro-ω-hydroxy-, polymer with 1,1'-methylene-bis-[4-isocyanatocyclohexane] [PP-2] |  | localized in the stratum corneum

— patent publication US6277364A, “Polyurethanes as topical skin protectants” (Bertek Pharmaceuticals, Inc., priority 1998, dated 2001)
